Results on two compounds are retold here after article PMC3109356 (Bioorganic & medicinal chemistry letters, 2011).

Holding throughout (type): binding
The target of series [1] is M. tuberculosis MshC (MBP-MshC) (Mycobacterium tuberculosis, UniProt P9WJM9). Briefly: 1H STD NMR in the presence of MBP-MshC. The settings on record: for STD relative enhancement for H-2″ / STD relative enhancement for H-3″: normalized to adenine H-2, 20 μM MBP-MshC, 900 μM ligand.
Another series addresses MBP-MshC (Mycobacterium tuberculosis, UniProt P9WJM9). Briefly: NOESY / transferred NOESY in the presence of MBP-MshC. Conditions: free in solution vs in the presence of MBP-MshC.
The next series has as its target soluble MBP tag (Escherichia coli, UniProt P0AEX9). Briefly: 1H STD NMR with soluble MBP tag as control.
The next series deals with MshC (Mycobacterium tuberculosis, UniProt P9WJM9). Briefly: isothermal titration calorimetry. The settings on record: ITC. (In ITC the heat of successive injections is recorded.)
Sequence of MshC (P9WJM9 whole entry): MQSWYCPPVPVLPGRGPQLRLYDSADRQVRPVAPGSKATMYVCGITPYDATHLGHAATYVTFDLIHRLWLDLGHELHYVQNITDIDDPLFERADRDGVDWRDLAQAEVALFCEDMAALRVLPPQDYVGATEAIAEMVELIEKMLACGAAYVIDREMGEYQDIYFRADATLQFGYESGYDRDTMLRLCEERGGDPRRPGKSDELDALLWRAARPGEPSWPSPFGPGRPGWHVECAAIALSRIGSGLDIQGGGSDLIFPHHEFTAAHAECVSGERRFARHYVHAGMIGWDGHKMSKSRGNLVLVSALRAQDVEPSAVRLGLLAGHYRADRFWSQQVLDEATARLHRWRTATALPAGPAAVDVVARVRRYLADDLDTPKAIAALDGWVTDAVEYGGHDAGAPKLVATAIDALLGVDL

Sequence of M. tuberculosis MshC (MBP-MshC) (P9WJM9 whole entry): as above
Sequence of MBP-MshC (P9WJM9 whole entry): as above

`Nc1ncnc2c1ncn2[C@@H]1O[C@H](COS(=O)(=O)NC(=O)[C@@H](N)CS)[C@@H](O)[C@H]1O` [Compound 1, 5′-O-[N-(L-cysteinyl)sulfamoyl] adenosine]: in series [1], the “STD relative enhancement for H-2″” value was determined as 21% and the “STD relative enhancement for H-3″” value worked out at 10%. Further, the “NOESY/trNOESY cross peaks (binding)” value at MBP-MshC is on record as “cross peaks changed in sign from positive to negative”. Besides, the “binding to the soluble MBP tag” value on soluble MBP tag was “No binding was observed”.

Take `Nc1ncnc2c1ncn2[C@@H]1O[C@H](COS(=O)(=O)NC(=O)[C@@H](N)CC(=O)O)[C@@H](O)[C@H]1O` [Compound 3]: the “signal-to-noise (S/N) ratio in the STD difference spectra” value in series [1] (in the presence of MshC, reference spectra S/N 170) came out at 20. In addition, in series [1], the “STD relative enhancement for H-2″” value amounted to 12% and the “STD relative enhancement for H-3″” value is reported as “no effect could be observed”. Further, at MBP-MshC, the “NOESY/trNOESY cross peaks (binding)” value is on record as “did not contain any cross peaks”. Further, the heats of binding entry at MshC is “No heats of binding were detected”. Moreover, the “binding to the soluble MBP tag” value at soluble MBP tag is given as “No binding was observed”.
